From PubChem BioAssay (NCI)
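Each compound was tested at five concentrations against cells in 96-well plates for 48 hours. Definition used: TGI = concentration required for complete inhibition of growth.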

What was measured:
Test in all cases: NCI-60 cell line screen, 48 h
786-0 renal = tested on: 786-0 renal
A498 renal = tested on: A498 renal
A549 NSCLC = tested on: A549 NSCLC
ACHN renal = tested on: ACHN renal
CAKI-1 renal = tested on: CAKI-1 renal
CCRF-CEM leukemia = tested on: CCRF-CEM leukemia
COLO 205 colon = tested on: COLO 205 colon
DLD-1 colon = tested on: DLD-1 colon
DMS 114 small cell lung = tested on: DMS 114 small cell lung
DMS 273 small cell lung = tested on: DMS 273 small cell lung
EKVX NSCLC = tested on: EKVX NSCLC
HCC-2998 colon = tested on: HCC-2998 colon
HCT-116 colon = tested on: HCT-116 colon
HCT-15 colon = tested on: HCT-15 colon
HL-60(TB) leukemia = tested on: HL-60(TB) leukemia
HOP-18 NSCLC = tested on: HOP-18 NSCLC
HOP-62 NSCLC = tested on: HOP-62 NSCLC
HOP-92 NSCLC = tested on: HOP-92 NSCLC
HT29 colon = tested on: HT29 colon
IGROV1 ovarian = tested on: IGROV1 ovarian
K-562 leukemia = tested on: K-562 leukemia
KM12 colon = tested on: KM12 colon
KM20L2 colon = tested on: KM20L2 colon
LOX IMVI melanoma = tested on: LOX IMVI melanoma
LXFL 529 NSCLC = tested on: LXFL 529 NSCLC
M14 melanoma = tested on: M14 melanoma
M19-MEL melanoma = tested on: M19-MEL melanoma
MALME-3M melanoma = tested on: MALME-3M melanoma
MOLT-4 leukemia = tested on: MOLT-4 leukemia
NCI-H226 lung = tested on: NCI-H226 lung
NCI-H23 lung = tested on: NCI-H23 lung
NCI-H460 lung = tested on: NCI-H460 lung
NCI-H522 lung = tested on: NCI-H522 lung
OVCAR-3 ovarian = tested on: OVCAR-3 ovarian
OVCAR-4 ovarian = tested on: OVCAR-4 ovarian
OVCAR-5 ovarian = tested on: OVCAR-5 ovarian
OVCAR-8 ovarian = tested on: OVCAR-8 ovarian
RPMI-8226 leukemia = tested on: RPMI-8226 leukemia
RXF 393 renal = tested on: RXF 393 renal
SF-268 CNS = tested on: SF-268 CNS
SF-295 CNS = tested on: SF-295 CNS
SF-539 CNS = tested on: SF-539 CNS
SK-MEL-2 melanoma = tested on: SK-MEL-2 melanoma
SK-MEL-5 melanoma = tested on: SK-MEL-5 melanoma
SK-OV-3 ovarian = tested on: SK-OV-3 ovarian
SN12C renal = tested on: SN12C renal
SNB-19 CNS = tested on: SNB-19 CNS
SNB-75 CNS = tested on: SNB-75 CNS
SNB-78 CNS = tested on: SNB-78 CNS
SR leukemia = tested on: SR leukemia
SW-620 colon = tested on: SW-620 colon
TK-10 renal = tested on: TK-10 renal
U251 CNS = tested on: U251 CNS
UACC-257 melanoma = tested on: UACC-257 melanoma
UACC-62 melanoma = tested on: UACC-62 melanoma
UO-31 renal = tested on: UO-31 renal
XF 498 CNS = tested on: XF 498 CNS

Measured: TGI

CC(C)(C)OC(=O)C1=C(O)C(C(=O)OC(C)(C)C)C23CCCCC12C(C(=O)OC(C)(C)C)C(O)=C3C(=O)OC(C)(C)C (configuration not stated)
> 100 µM: all assays above
